The format of this data set is physicochemical. How it is done: Finsolv® TN is a C12-15 alkyl benzoate from Fintex, Inc. (Elmwood Park, N.J.) Miglyol® 812 from Huls AG (Marl, Germany) and Neobee® 1053 from Stepan Company (Northfield, Ill.) are each a caprylic/capric triglyceride.
The general procedure to prepare the above formulations is as follows. A 500 mg of Compound 1 was weighed and transferred into an 800 ml glass beaker containing 500 g of one of the above carriers. The formulation was then stirred with a paddle mixer (stirrer type RZR50 from Caframo in Wiarton, Ontario, Canada) at 100 RPM setting until the compound was completely dissolved/dispersed in the carrier.
About 20 g each of the resulting formulations were then packed into 24 clear glass scintillation vials of 20 ml volume (Wheaton Disposable Scintillation Vials from Wheaton Scientific in Milleville, N.J.) and labeled. Groups of eight of such vials were then stored at 4° C., RT (22° C.) and/or 40° C. for stability studies.
The samples of the formulations at each of the above three temperatures were then periodically analyzed for the chemical stability of Compound 1. The compound was assayed using high performance liquid chromatographic (HPLC) system. The results of this analysis is set forth in Table 2 setting forth the amount of Compound 1 remaining in the formulation following a certain number of days at specified temperatures.

The values below come from US6844364B2, “Stabilization of retinoid compounds” (Johnson & Johnson Consumer Companies, Inc., priority 2001, dated 2005).

Turning to `CCCCCc1cc2c(cc1C(=O)Oc1ccc(C(=O)O)cn1)C(C)(C)CCC2(C)C` [Compound I], the “Stabilization of the compound in topical liquid or semisolid pharmaceutical formulations” value is given as “None of these formulations, however, were capable of sufficiently stabilizing the compound”.
